Key:
[1] = test system: mouse dorsal root ganglia (DRG) neurons; assay: Calcium mobilization in primary DRG sensory neurons, basal (unstimulated); type: cell-based; conditions: 10 μM
Procedure: (§1) Male C57B16 mice (6-8 weeks) were used to produce primary cultures of dorsal root ganglia (DRG) sensory neurons for calcium flux experiments, and to perform studies of colorectal distention and intestinal isotonic contraction. All procedures were approved by Institutional Animal Care Committees (CEEA 122).
To determine whether C12-Asn-GABA or C12-Asn-BABA is capable of signaling to sensory nerves, calcium mobilization studies were performed on primary cultures of mouse dorsal root ganglia (DRG) neurons. […] The same experiments were thereafter performed in neurons activated by either an agonist of the receptor calcium channel TRPV1 (capsaicin) or by a mix of agonists (histamine, serotonin and bradykinin) for G protein coupled receptors (GPCR) implicated in visceral hypersensitivity. Exposure of neurons to either capsaicin (125 nM) or the mix of GPCR agonists (histamine, bradykinin, serotonin, 10 μM each) induced an increase in calcium flux as shown by the higher % of responding neurons and amplitude of the response (ΔF/F) compared to the vehicle (FIG. 4A, 4B). […] To investigate whether the inhibitory effect of C12-Asn-GABA was associated to the GABA residue, neurons were treated with saclofen (10, 50, and 100 μM), a competitive antagonist of the GABAB receptor. […]

[2] = test system: mouse sensory neurons activated by mix of GPCR agonists (histamine, serotonin, bradykinin); assay: Calcium flux in sensory neurons activated by mix of GPCR agonists; type: cell-based; conditions: serotonin 10 μM each, pretreatment with increasing amounts of compound
Procedure: (§2) FIG. 4: C12-Asn-GABA inhibits neuronal activation via the GABA B receptor. Amplitude of intracellular calcium mobilization (ΔF/F; right panel) in mouse sensory neurons and percentage of responding neurons (left panel) pretreated with increasing amounts of C12-Asn-GABA (black circle) or vehicle (HBSS; white circle) and treated with capsaicin (125 nM; A) or a mix of G protein coupled receptor agonists (histamine, serotonin and bradykinin 10 μM each; B). Data are represented as mean±SEM; n=4 independent experiments of 3 wells per condition and 30-80 neurons per well. […] Percentage of responding neurons pretreated with increasing amounts of saclofen (black circle) or vehicle (HBSS; white circle) and treated with C12-Asn-GABA (10 μM) and capsaicin (125 nM; C) or a mix of G protein coupled receptor agonist (histamine, serotonin and bradykinin 10 μM each; D). Data are represented as mean±SEM; n=4 independent experiments of 3 wells per condition and 30-80 neurons per well.
as §1, with “122). […]” for “122).”

[3] = test system: mouse sensory neurons activated by capsaicin; assay: Calcium flux in sensory neurons activated by capsaicin (TRPV1 agonist); type: cell-based
Procedure: as §2
FIG. 7: C14-Asn-GABA inhibits neuronal activation by capsaicin. Amplitude of intracellular calcium mobilization (F/F; A) in mouse sensory neurons and percentage of responding neurons (B) pretreated with 10 μM of C14-Asn-GABA (black bar) or vehicle (HBSS; white bar) and treated with capsaicin (125 nM). Data are represented as mean±SEM; n=3 independent experiments of 3 wells per condition and 35-82 neurons per well.
as §1
To determine whether C12-Asn-GABA or C12-Asn-BABA is capable of signaling to sensory nerves, calcium mobilization studies were performed on primary cultures of mouse dorsal root ganglia (DRG) neurons. […]

[4] = test system: Caco-2 cells; assay: Absorption across Caco-2 monolayer in transwell chambers; type: in vitro ADME, human; conditions: 800 ng apical, 24 h, LC-HRMS
Procedure: FIG. 5: C12-Asn-GABA crosses the epithelial barrier without modifying epithelial cells physiology. Caco-2 cells were cultivated into transwell chambers. After treatment with C12-Asn-GABA (800 ng) at the apical side, C12-Asn-GABA was quantified inside the cells and both the apical and basolateral compartments by LC-MS/MS (A); data are represented as mean±SEM, n=3 experiments of 3 wells per condition. Extracted ion chromatogram at the exact mass of GABA (104.0702 m/z) with a mass accuracy of 5 ppm of the GABA commercial standard (GABA (Std.) and apical and basolateral compartments after loading or not Caco-2 cells with 800 ng of GABA at the apical site (B); representation of one well, n=3 experiments of 3 wells per condition. Paracellular permeability assessed by the passage of FITC-dextran loaded at the apical side (C) and CXCL8 secretion assessed by ELISA (D) were monitored after treatment of Caco-2 cells at the apical side with C12-Asn-GABA (10 μM); data are represented as mean±SEM, n=3 experiments of 3 wells per condition. […]
Caco-2 cells were grown in Glutamax DMEM (Gibco, Invitrogen life technologies, Paisley, UK) supplemented with 10% heat-inactivated fetal bovine serum (FBS) (Gibco, Invitrogen life technologies, Paisley, UK), 1% nonessential amino acids and 1% antibiotics (100 U/ml penicillin and […] streptomycin (Gibco, Invitrogen life technologies, Grand Island, N.Y., USA) at 37° C. in a 5% C02 water-saturated atmosphere. Cells were seeded on Transwell inserts (Costar, Sigma-Aldrich, Saint-Quentin Fallavier, France) and absorption studies of C12-Asn-GABA and GABA were performed 16 days later. These compounds were quantified by LC-MS/MS in both apical and basolateral chambers as well as in cells. The effect of C12-Asn-GABA (1-100 μM) on paracellular permeability was also measured by mucosal-to-serosal flux of 4 kDa Fluorescein Isothiocyanate (FITC)-labelled dextran as previously described^31. […]
The initial barrier for any drug absorption is the intestinal epithelial cell wall. […] The transport of GABA alone across the cell monolayer was also assessed. […]

[5] = test system: capsaicin-induced visceral hypersensitivity; assay: Capsaicin-induced visceral hypersensitivity, visceromotor response to colorectal distension; type: in vivo, mouse; conditions: oral 25 mg/kg, 4 hours before intracolonic capsaicin 100 μg/mouse
Procedure: FIG. 6: C12-Asn-GABA inhibits capsaicin-induced visceral hypersensitivity without altering Intestinal contraction. Mice received intracolonic administration of C12-Asn-GABA (10 μM; black symbols) or vehicle (40% ethanol; white symbols) and 30 minutes or 4 hours later colon (A) and blood (B) were harvested in order to quantify C12-Asn-GABA by LC-MS/MS. Data are expressed as mean±SEM, n=8 mice per group. […] Mice received intracolonic administration of C12-Asn-GABA (10 μM; black symbols) or vehicle (40% ethanol; white symbols) and 30 minutes or 4 hours later an intracolonic administration of capsaicin (100 μg/mouse; square) or its vehicle (40% ethanol; circle). Fifteen minutes after capsaicin or vehicle treatment, visceromotor response (VMR) to increasing pressures of colorectal distension was performed. Data are expressed as mean±SEM, n=7-8 mice per group. […] Ex vivo measurement of duodenal mechanical contraction frequency (B) and amplitude (C) in response to Krebs-Ringer solution (control; white bar), to DMSO 0.2% (vehicle; gray bar) or to C12-Asn-GABA (10 μM; black bar). Data are expressed as mean±SEM, n=5-6 per group. Statistical analysis was performed using Kruskal-Wallis analysis of variance and subsequent Dunn's post hoc test.
FIG. 8: Trimebutine maleate has no effect on capsaicin-induced visceral hypersensitivity. Mice received an oral treatment with vehicle (PEG200, white circle) or with trimebutine maleate (25 mg/kg, black circle) and 4 hours later an intracolonic administration of capsaicin (100 μg/mouse; black and white circle). Fifteen minutes after capsaicin, visceromotor response (VMR) to increasing pressures of colorectal distension was performed. Data are expressed as mean±SEM, n=7-8 mice per group. […]
In a first set of experiment, we assessed the ability of the C12-Asn-GABA to cross the epithelial barrier, in vivo. […] The impact of C12-Asn-GABA on visceral hypersensitivity was assessed by measuring the visceromotor responses (VMR) to colorectal distension (CRD). […]

Question: Which results are given for `CCCCCCCCCCCC(=O)N[C@@H](CC(N)=O)C(=O)NC(C)CC(=O)O` (stereo partly drawn) [C12-Asn-BABA, C12-Asn-β-aminobutyric]?
Answer: calcium mobilization under basal (unstimulated) conditions [1]: None of the isomers (10 μM) induced calcium mobilization; calcium flux increase induced by mix of GPCR agonists (% responding neurons, amplitude ΔF/F) [2]: had no effect; calcium flux increase induced by capsaicin (% responding neurons, amplitude ΔF/F) ([3]; capsaicin 125 nM, pretreatment with increasing amounts of compound): had no effect

Question: `CCCCCCCCCCCCCC(=O)NC(CC(N)=O)C(=O)NCCCC(=O)O` (stereo not drawn) [C14-Asn-GABA] was tested. Which “calcium flux increase induced by capsaicin (amplitude, % responding neurons)” value ([3]; 10 μM, pre-treated 5 minutes before capsaicin 125 nM) did it give?
Answer: prevented by C14-Asn-GABA pretreatment

Question: How did the “presence in the basal chamber” value [4] turn out when `NCCCC(=O)O` [GABA, gamma-Aminobutyric acid, reference compound] was run?
Answer: not detected

Question: For “trimebutine maleate [reference compound]”, which “hypersensitivity induced by capsaicin (VMR to CRD)” value [5] is on record?
Answer: has no effect
